# Literature values, collected in patent publication US11173186B2, “Dosing regime and formulations for type B adenovirus” (PSIOXUS THERAPEUTICS LIMITED, priority 2013, dated 2021).
# Conditions: interim analysis; intratumoural talimogene laherparepvec vs subcutaneous GM-CSF
substance,measurement,value
"GM-CSF: subcutaneously administered GM-CSF, comparator in the OPTiM trial",durable response rate,2%
